The values that follow come from US20260185169A1, “MOLECULAR SIGNATURES TO PREDICT LONG-TERM LIVER FIBROSIS PROGRESSION” (THE BOARD OF REGENTS OF THE UNIVERSITY OF TEXAS SYSTEM, priority 2022, published 2026).

Residues, ends and D or L forms follow the SMILES beside them. *: point of attachment. Cbz = O=C(OCc1ccccc1)*

Test [1] deals with clinical PCLS tissues. In words: FPS/PLS response (CES, nCounter) in organotypic ex vivo culture of clinical PCLS tissues. Type of test: cell-based, human. The note with it: for FPS response rate (number of responding patients): count of patients with CES-based FPS response; for FPS response rate (number of responding patients) / FPS response rate: PCLS cultured 24 h with agent vs vehicle; for PLS response rate (number of responding patients): count of patients with PLS response; for PLS response rate (number of responding patients) / PLS response rate: ex vivo PCLS culture; for modulation of SLC7A1 (CAT1): drug-level FPS gene modulation in ex vivo PCLS culture; for FPS response rate: percent of patients tested with CES-based FPS response; for PLS response rate: percent of patients tested with PLS response. From the text: (§1) Evaluation of galunisertib, erlotinib, AM095, bortezomib, pioglitazone, metformin, epigallocatechin gallate (EGCG), I-BET 151, JQ1, captopril, nizatidine (Selleck Chemicals); MG-132 (Sigma-Aldrich); cenicriviroc (AbbVie) (Table 2) were done in organotypic ex vivo culture of precision-cut liver slice (PCLS) tissues in the FPS validation set 2 as previously described. Patient-derived liver cell spheroids were generated from a cirrhosis patient and high-risk FPS was induced by free fatty acids, and treated with EGCG, bortezomib, cenicriviroc, and/or bezafibrate for 48 h. Mycoplasma-free human hepatic myofibroblast cell lines, LX-2 and TWNT-4, were cultured with MG-132 (20 μM) or DMSO control for 12 and 24 h in triplicates.
Total RNA was isolated from fixed tissue sections by using High Pure RNA Paraffin kit (Roche), and assessed for quality by qRT-PCR of RPL13A. Total RNA from the PCLS tissues was isolated using RNeasy kit (Qiagen). RNA samples (100-200 ng) were subjected to the PLS/FPS assay implemented in the nCounter platform (NanoString), and transcriptome profiling of the CENTAUR trial samples was performed by RNA-Seq (TrueSeq RNA Access, Illumina). Expression of BCL2, COL1A1, and ACTA2 genes was measured by qRT-PCR (Table 3). Serum protein profiling was performed by using xMAP assay (Luminex).
Total RNA was isolated from three to five 10-μm-thick formalin-fixed paraffin-embedded (FFPE) tissue sections from the PLS/FPS derivation/validation cohorts by using High Pure RNA Paraffin kit (Roche), and lack of severe RNA fragmentation was confirmed by qRT-PCR of a housekeeping gene RPL13A as previously described.^1 From freshly harvested myofibroblast cell lines, LX-2 and TWNT-4, and clinical precision-cut-liver slice (PCLS) tissues stored in RNAlater (ThermoFisher) at −80?C, total RNA was isolated using RNeasy kit (Qiagen), and the RNA integrity number (RIN)>8 by Bioanalyzer (Agilent) was regarded as sufficient quality for expression analysis. Total RNA samples (100 to 500 ng) were subjected to the gene signature assays implemented in the digital transcript counting technology (NanoString) according to manufacturer's instruction. Poor quality profiles were detected based on maximum signal intensity from positive control probes <3,000U. Raw transcript count data were log-transformed (base 2) and scaled by geometric mean of control probe data by using NanoString normalizer module implemented in GenePattern data analysis suite (www.broadinstitute.org/genepattern). Genome-wide transcriptome profiling of the CENTAUR trial samples was performed using 100 to 200 ng total RNA by RNA-Seq using exome-enriched library preparation according to the manufacturer's protocol (TrueSeq, Illumina). Raw sequencing reads were mapped onto the reference human genome (hg19) by using the STAR aligner (ver. 2.6.1b) followed by the read counting on genes via featureCounts in the Subread package (ver. 1.6.1). The raw read counts were further normalized by using the Relative Log Expression (RLE) implemented in the DESeq2 package (ver. 1.22.2). Expression of COL1A1, and ACTA2, and BCL2 genes was measured by qRT-PCR (BioRad) using ddCt method with RPL13A as housekeeping gene, as previously described (refer Table 3 for the primer sequences). Gene expression profiles of the PLS/FPS-inducible cell culture model (cell-culture-derived PLS [cPLS] system) treated with erlotinib, pioglitazone, captopril, and resveratrol were obtained from our previous study (GSE81801).

The subject of test [2] is LX-2. Put plainly: MG-132 effect on COL1A1, ACTA2 and BCL2 expression (qRT-PCR) in LX-2. The conditions noted are these: MG-132 20 μM vs DMSO, 12 and 24 h. The class given is cell-based, human.
Source text: as §1
(§2) Total RNA was isolated from fixed tissue sections by using High Pure RNA Paraffin kit (Roche), and assessed for quality by qRT-PCR of RPL13A. Total RNA from the PCLS tissues was isolated using RNeasy kit (Qiagen). RNA samples (100-200 ng) were subjected to the PLS/FPS assay implemented in the nCounter platform (NanoString), and transcriptome profiling of the CENTAUR trial samples was performed by RNA-Seq (TrueSeq RNA Access, Illumina). Expression of BCL2, COL1A1, and ACTA2 genes was measured by qRT-PCR (Table 3). Serum protein profiling was performed by using xMAP assay (Luminex). […]
For orientation: Real-time PCR tracks product formation cycle by cycle.

Test [3] has as its system TWNT-4. In words: MG-132 effect on COL1A1, ACTA2 and BCL2 expression (qRT-PCR) in TWNT-4. The class given is cell-based, human. The conditions noted are these: MG-132 20 μM vs DMSO, 12 and 24 h.
Source text: as §1, §2

For test [4], the system named is human precision-cut liver slice (PCLS). In words: MG-132 effect on COL1A1, ACTA2 and BCL2 expression (qRT-PCR) in ex vivo PCLS culture. Type of test: cell-based. The conditions noted are these: PCLS from two patients, HCV (F1) and NAFLD (F2); vs DMSO.
Source text: as §1, §2

In test [5] the test system is clinical PCLS tissue. Put plainly: Immunostaining of cleaved caspase-3, alpha-SMA and GFAP in PCLS tissues cultured with MG-132 or DMSO. The class given is cell-based, human. The note with it: PCLS tissues cultured with MG-132 vs DMSO, five patients. The method, then: FIG. 4A depicts a co-expression gene network defined in the FPS derivation set 1 to 4. Hub genes are indicated with larger nodes. Synthesized association with time to fibrosis progression (Fisher's inverse chi-square statistic) in the FPS derivation set 1 and 2 is shown by red (poor outcome) to blue (good outcome) color scale. […] All assays were performed in triplicates. Green dotted line indicates expression level of the DMSO-treated control. […] Paired tissues from the same patient are connected with a line. Wilcoxon signed-rank test p-value is shown. […] Scale bars indicate 50 μm and 25 μm for upper and lower panels, respectively. […] Scale bars indicate 100 μm. […] NES: normalized enrichment score. FDR: false discovery rate.
Immunostaining was performed for caspase-3 (Asp175) (5A1E, Cell Signaling), alpha-SMA (Abcam), Desmin (DAKO), GFAP (abcam), and Ki-67 (Abcam). TUNEL staining was performed using ApopTag Peroxidase In Situ Apoptosis Detection Kit (EMD Millipore).

The subject of test [6] is PCLS tissue from a chronic hepatitis C patient with F2 fibrosis. In words: Validation of combination therapies by liver fibrosis gene panel in ex vivo culture of a clinical fibrotic PCLS tissue. The note with it: agent added to EGCG. Type of test: cell-based, human.
Source text: as §1
To test this idea, synergistic effect of the agents to shift the FPS from high- to low-risk pattern was computationally inferred, i.e., suppression of the high-risk genes and/or induction of the low-risk genes (see materials and methods).

For test [7], the system named is biliary fibrosis induced by bile duct ligation. The conditions noted are these: bile duct ligation in mice; cited from earlier work.

Consider `Cc1cccc(-c2nn3c(c2-c2ccnc4ccc(C(N)=O)cc24)CCC3)n1` [Galunisertib], for which, in test [1], the “FPS response rate (number of responding patients)” value is 6, the “PLS response rate (number of responding patients)” value is listed as 7 and the “modulation of SLC7A1 (CAT1)” value is recorded as “similarly striking suppression”.
Consider `CCc1ccc(CCOc2ccc(CC3SC(=O)NC3=O)cc2)nc1` (stereo not shown) [Pioglitazone], for which, in test [1], the “FPS response rate (number of responding patients)” value was 6 and the “PLS response rate (number of responding patients)” value came out at 7.
As for `Cc1noc(-c2ccc(-c3ccc(CC(=O)O)cc3)cc2)c1NC(=O)O[C@H](C)c1ccccc1` [AM095], in test [1], the “FPS response rate (number of responding patients)” value came to 11, the “PLS response rate (number of responding patients)” value is 8, the “modulation of SLC7A1 (CAT1)” value is listed as “similarly striking suppression” and the FPS response rate is 38%. In test [1], this compound yielded a PLS response rate of 27.59%.
With `CN(C)C(=N)N=C(N)N` [Metformin], in test [1], the “FPS response rate (number of responding patients)” value is 7, the “PLS response rate (number of responding patients)” value is given as 6 and the “modulation of SLC7A1 (CAT1)” value was “similarly striking suppression”.
With `CC(C)C[C@@H](C=O)NC(=O)[C@H](CC(C)C)NC(=O)[C@H](CC(C)C)NC(=O)OCc1ccccc1` [MG132] (Cbz-Leu-Leu-Leu-aldehyde), the “modulation of high-risk FPS genes (gene set enrichment analysis)” value in test [1] (clinical fibrotic PCLS tissues, ex vivo MG-132, FDR≤0.008) was “significantly suppressed”. Besides, in test [1], the “FPS response rate (number of responding patients)” value is 6. Besides, the “PLS response rate (number of responding patients)” value in test [1] is listed as 3. Besides, the “expression of COL1A1, ACTA2 and BCL2” value is given as “suppression” in test [2], “suppression” in test [3] and “reduced expression” in test [4]. Moreover, the “cleaved-caspase-3-positive cells (apoptosis induction)” value in test [5] was “increased”. Moreover, in test [6], the “expression of genes encoding extracellular matrix proteins (COL1A1, HAS2) and fibrogenic drivers (PDGFRB, TGFB1, NOTCH1, LPAR1)” value is “substantially reduced expression”. Also, the “myofibroblast activation and biliary fibrosis” value in test [7] is “reduced myofibroblast activation and inhibit biliary fibrosis”.
`CC(C)C[C@H](NC(=O)[C@H](Cc1ccccc1)NC(=O)c1cnccn1)B(O)O` [Bortezomib]: in test [1], the “FPS response rate (number of responding patients)” value is 4 and the “PLS response rate (number of responding patients)” value turned out to be 5. Moreover, the “expression of genes encoding extracellular matrix proteins (COL1A1, HAS2) and fibrogenic drivers (PDGFRB, TGFB1, NOTCH1, LPAR1)” value in test [6] was “substantially reduced expression”. For the same compound, in test [7], the “myofibroblast activation and biliary fibrosis” value was “reduced myofibroblast activation and inhibit biliary fibrosis”.
As to `C#Cc1cccc(Nc2ncnc3cc(OCCOC)c(OCCOC)cc23)c1` [Erlotinib], in test [1], the “FPS response rate (number of responding patients)” value is listed as 11 and the “PLS response rate (number of responding patients)” value turned out to be 13.
`O=C(O[C@@H]1Cc2c(O)cc(O)cc2O[C@@H]1c1cc(O)c(O)c(O)c1)c1cc(O)c(O)c(O)c1` [Epigallocatechin gallate]: in test [1], the “FPS response rate (number of responding patients)” value was 7, the “PLS response rate (number of responding patients)” value came to 9, the FPS response rate worked out at 64% and the PLS response rate came out at 81.82%.
As to `CNC(=C[N+](=O)[O-])NCCSCc1csc(CN(C)C)n1` [Nizatidine], in test [1], the “FPS response rate (number of responding patients)” value worked out at 3 and the “PLS response rate (number of responding patients)” value was 3.
